# According to PMC8105311 (Scientific Reports, 2021):
# What was measured:
# [1] = cited from earlier work
# [2] = Solubility of L-carnitine in water; format: physicochemical
# mice = test system: mice; design: method as in PMID 25488130; conditions: cited from earlier work
# [3] = 195Pt NMR of ligand exchange of cisplatin in solution; format: physicochemical; conditions: for Detection of Pt species by 195Pt NMR: DMSO aq. equimolar to 50 wt% TMG aq., day 1
# Protocol: ^195Pt NMR spectrometry and mass spectrometry
# After leaving it at room temperature, the resulting solution was measured at Day 5 and Day 10. We used co-axial tubes and K2[PtCl4] in D2O (for adjusting shim) was in the inner tube.
# (1 mL) was prepared and left for one day. The resulting solution was measured by ^195Pt NMR (Day 1; 25,000 scans). NaCl (80 mg) was added and stirred. The solution was left and measured (Day2–4; 25,000 scans). In the case of DMSO aq., the concentration of DMSO uesd was adjusted to be equimolar to 50 wt% TMG aq.
# [4] = Dissolution time of cisplatin/TMG powder vs native cisplatin powder; format: physicochemical; conditions: native cisplatin powder in 50 wt% TMG aq.
# Protocol: (§1) The platinating agent (10 mM) was added to the 50 wt% TMG aq. (1 mL) and solubilized by stirring for 1 h. The resulting solution was left for more than one day. The resulting solution was freeze-dried and a pale yellow powder was obtained.
# The yellow precipitates are undissolved cisplatin.
# MDA-MB-231 cells = experiment: Anticancer efficiency of cisplatin (cell viability, CellTiter 96 Aqueous One Solution); format: cell-based, human; conditions: final 0.1-100 µM
# Protocol: MDA-MB-231 human breast cancer cell was kindly gifted from Prof. Erik Sahai (The Francis-Crick Institute, UK) and described previously^7. The cells were grown and maintained as monolayer cultures in 5% CO2 and humidified atmosphere at 37 °C, using Dulbecco's modified Eagle medium (high glucose with L-glutamine and phenol red, Fujiﬁlm Wako Pure Chemical Corporation), 10 vol% fetal bovine serum (Sigma-Aldrich Co., Llc.), and penicillin–streptomycin solution (×100; Fujiﬁlm Wako Pure Chemical Corporation). The cells were subcultured every 3–5 days by using trypsin solution (0.5w/v% trypsin—5.3mmol/L EDTA·4Na solution without phenol red (×10), Fujiﬁlm Wako Pure Chemical Corporation).
# Anticancer efficiency of cisplatin
# MDA-MB-231 cells (5,000 cells/well) were seeded to each well of a 96-well plate and then pre-cultured for 24 h. […] The solutions were added to the media to be 100, 10, 1, and 0.1 µM. The cells were cultured for 72 h and the cell viability was investigated with CellTiter 96® Aqueous One Solution.
# as §1
compound,measurement,setting,value
"C[S+](C)[O-] [DMSO, dimethyl sulfoxide]",Kamlet-Taft β value (hydrogen bond basicity),[1],0.83
C[N+](C)(C)C[C@H](O)CC(=O)[O-] [L-carnitine],Solubility in water,[2],approximately 70 wt%
"C[N+](C)(C)CC(=O)O [TMG, Trimethylglycine]",Effect on nephrotoxicity when cisplatin is administered,mice,reduces nephrotoxicity
N.N.O.[Cl][Pt+] [[Pt(NH3)2Cl(H2O)]^+],Reversion to Pt(NH3)2Cl2 in the presence of NaCl,"[3]; 50 wt% TMG aq., after NaCl addition",reverted to Pt(NH3)2Cl2
same,Ratio of Pt species by 195Pt NMR,"[3]; 50 wt% TMG aq., after NaCl addition, day 2",2 mol%
same,Ratio of Pt species by 195Pt NMR,"[3]; 50 wt% TMG aq., after NaCl addition, day 3",0 mol%
same,Ratio of Pt species by 195Pt NMR,"[3]; 50 wt% TMG aq., after NaCl addition, day 4",0 mol%
same,Ratio of Pt species by 195Pt NMR,"[3]; 50 wt% TMG aq., left for 24 h (day 1), before NaCl addition",17 mol%
same,Detection of Pt species by 195Pt NMR,[3],not detected
N.N.[Cl][Pt][Cl] [cisplatin],Time required for dissolution,[4],approximately 1 h
same,MDA-MB-231 cell viability,"MDA-MB-231 cells; 10 mM cisplatin stock in 50 wt% TMG aq., 72 h",decreased in a dose-dependent manner
same,Anticancer effect (MDA-MB-231 cell viability),"MDA-MB-231 cells; cisplatin stock in 50 wt% L-carnitine aq., 72 h",retained the anticancer effect
same,Anticancer effect (MDA-MB-231 cell viability),"MDA-MB-231 cells; cisplatin stock in DMSO, 72 h",abolished
same,MDA-MB-231 cell viability,MDA-MB-231 cells; solution regenerated with water from freeze-dried cisplatin/TMG powder (10 mM cisplatin in 50 wt% TMG aq.),killed MDA-MB-231 cells in a dose-dependent manner
same,Ligand exchange (195Pt NMR),"[3]; 50 wt% TMG aq., immediately after dissolution",ligand exchange did not occur
same,Chloride ligand exchanged,"[3]; 50 wt% TMG aq., room temperature, after 10 days",66 mol%
same,Integral value of the signal of the emerging compound (Pt(NH3)2Cl2 signal fixed as 1.0),"[3]; 50 wt% TMG aq., room temperature, day 5",1.25
same,Integral value of the signal of the emerging compound (Pt(NH3)2Cl2 signal fixed as 1.0),"[3]; 50 wt% TMG aq., room temperature, day 10",1.90
same,Detection of Pt species by 195Pt NMR,[3],not detected
O [water],Kamlet-Taft β value (hydrogen bond basicity),[1],around 0.15
[Pt(NH3)Cl(DMSO)]^+,Detection of Pt species by 195Pt NMR,[3],detected
same,Reversion to Pt(NH3)2Cl2 in the presence of NaCl,"[3]; DMSO aq., after NaCl addition",scarcely reverted to Pt(NH3)2Cl2
